# Laboratory results: article PMC6604423, “A New Flavanone as a Potent Antioxidant Isolated from Chromolaena odorata L. Leaves” (Evidence-based Complementary and Alternative Medicine : eCAM, 2019)
# Read-outs that look alike come from different tables or passages of the source.
# Columns and labels:
# [1] = target: α-glucosidase rat intestine enzyme; test: α-Glucosidase inhibitory activity assay (rat intestinal acetone powder, maltose substrate); format: biochemical; conditions: 10 mM maltose, pH 6.9, 37°C, 10 min, mean ± SD, triplicate
# Procedure: First, rat intestinal acetone powder (1 g) was suspended in 30 mL of normal saline. This suspended solution was sonicated for five minutes at 4°C. After centrifugation (12,000 rpm, 30 minutes, 4°C), the resulting supernatant was used for the assay. Briefly, a mixture of 10 μL samples, 30 μL of 0.1 M phosphate buffer (pH 6.9), 20 μL of 10 mM maltose, 80 μL glucose kit, and 20 μL of enzyme supernatant were incubated in 96-well plates at 37°C for 10 minutes. Acarbose was used as a standard. The absorbance was recorded at 490 nm by microplate reader (Biotek ELx800UV). The inhibitory activity was determined from the formula as follows:(2) Inhibition%=Ablank−Asample/Ablank×100 where Ablank = Aenzyme reaction − Ablank of enzyme reaction and Asample = Asample reaction − Ablank of sample reaction.
# [2] = DPPH radical scavenging assay; conditions: 20 min, room temperature, 517 nm; mean ± SD, triplicate
# Procedure: First, DPPH solution (6 × 10^−5 M) was separated by dissolving 2.37 mg of DPPH in 100 mL of methanol to obtain a working solution. […] Finally, the mixed sample solution was incubated for 20 minutes at room temperature. Then, the absorbance (As) of the reaction mixture was measured by UV-Vis spectrophotometer at 517 nm. The mixed solution between methanol and the working solution was used as blank to give the blank absorbance (Ab). Gallic acid was used as a standard. The inhibitory activity was calculated by (1).
# [3] = ABTS radical cation scavenging assay; conditions: for ABTS IC50: 4 min, room temperature, 734 nm, mean ± SD, triplicate; for IC50: same result expressed in μM
# Procedure: Free radical scavenging by ABTS radical was based on the method described previously by us. […] Those two solutions were mixed and incubated for 12-16 hours to obtain ABTS radical cation solution which is a dark blue solution. It was added with ± 274 mL of ethanol to give an absorbance of 0.7 ± 0.02 units at 734 nm for making a working solution. 1 mL of working solution was mixed with 10 μL of samples (n-hexane, dichloromethane, ethyl acetate, methanol, and water extracts) at maximum dissolved concentration in DMSO and mixed well. Finally, the mixed sample solution was incubated for four minutes at room temperature; then, the absorbance (As) of the reaction mixture was measured by UV-Vis spectrophotometers at 734 nm. The mixed solution between DMSO and the working solution was used as blank to give the blank absorbance (Ab). Trolox was used as a standard. […] The IC50 value was expressed as a quantity of an extract inhibitory concentration against a half of ABTS radicals.
# [4] = in vitro, C. odorata leaves; cited from earlier work
Structure (SMILES),α-Glucosidase inhibition IC50 [1] [µg/mL],ABTS IC50 [3] [µg/mL],IC50 [3] [µM],also measured
"C[C@H]1O[C@H](O[C@H]2[C@H](O)[C@@H](O)[C@@H](O[C@H]3[C@H](O)[C@@H](O)C(O)O[C@@H]3CO)O[C@@H]2CO)[C@H](O)[C@@H](O)[C@@H]1N[C@H]1C=C(CO)[C@@H](O)[C@H](O)[C@H]1O (some centres unmarked) [Acarbose, acarbose]",7.67 ± 1.86,,,
"O=C(O)c1cc(O)c(O)c(O)c1 [Gallic acid, gallic acid]",,,,DPPH IC50 [2]: 1.11 ± 0.42 µg/mL
"COc1cc(O)c2c(c1)OC(c1cc(O)ccc1OC)CC2=O (centres unmarked) [Odoratenin (1), 5,3'-dihydroxy-7,6'-dimethoxyflavanone]",>62.5,7.51 ± 1.57,23.7,
"Cc1c(C)c2c(c(C)c1O)CCC(C)(C(=O)O)O2 (centres unmarked) [Trolox, 6-hydroxy-2,5,7,8-tetramethylchromen-2-carboxylate acid]",,7.84 ± 0.45,31.3,
O=C1O[C@H]([C@@H](O)CO)C(O)=C1O [ascorbic acid],,,,ABTS IC50 [4]: 1000 µg/mL
